The results in this text go back to patent US8354403B2, “Pyrrolidine derived beta 3 adrenergic receptor agonists” (Merck Sharp & Dohme Corp., priority 2009, dated 2013).

The test deals with T1, human β3 adrenergic receptor (Homo sapiens, UniProt P13945).
T1 construct: expressed in transfected cells; host or cells: Chinese hamster ovary (CHO) cells, stably transfected
The test can be described thus: Beta-3 agonist in vitro functional assay: cAMP production (LANCE TR-FRET) in CHO cells stably transfected with the cloned β3 receptor. In kind it is cell-based. In a few lines:
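CHO cells stably expressing the cloned receptor, in HEPES-buffered HBSS with BSA and 0.6 mM IBMX, 6,000 cells/well, exposed to compound for 30 min at RT. cAMP read by LANCE TR-FRET against a cAMP standard curve. Isoproterenol defines maximal stimulation.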

Setting [1] is: Table 8, Beta-3 agonist in vitro functional assay, read-out: Human β3 agonist functional activity.
[2] abbreviates: Table 11, cAMP, CHO cells, read-out: Human β3 agonist functional activity.
[3] abbreviates: given as a range, cAMP, CHO cells, read-out: human β3 functional activity.
[4] abbreviates: Table 12, human β3 functional activity given as ranges, read-out: Human β3 agonist functional activity.
Where [5] appears, read: Table 10, Beta-3 agonist in vitro functional assay, read-out: Human β3 agonist functional activity.
The mark [6] stands for this setting: Table 9, Beta-3 agonist in vitro functional assay, read-out: Human β3 agonist functional activity.
Where [7] appears, read: Table 5, cAMP, CHO cells, read-out: Human β3 agonist functional activity.
Setting [8] is: Table 4, cAMP, CHO cells, read-out: Human β3 agonist functional activity.
[9] abbreviates: Table 7, cAMP, CHO cells, ranges as given for Tables 6 and 7, read-out: Human β3 agonist functional activity.

Structures are written as SMILES. Where two headings read alike, the source gives them in different places.

T1 sequence (P13945 whole entry): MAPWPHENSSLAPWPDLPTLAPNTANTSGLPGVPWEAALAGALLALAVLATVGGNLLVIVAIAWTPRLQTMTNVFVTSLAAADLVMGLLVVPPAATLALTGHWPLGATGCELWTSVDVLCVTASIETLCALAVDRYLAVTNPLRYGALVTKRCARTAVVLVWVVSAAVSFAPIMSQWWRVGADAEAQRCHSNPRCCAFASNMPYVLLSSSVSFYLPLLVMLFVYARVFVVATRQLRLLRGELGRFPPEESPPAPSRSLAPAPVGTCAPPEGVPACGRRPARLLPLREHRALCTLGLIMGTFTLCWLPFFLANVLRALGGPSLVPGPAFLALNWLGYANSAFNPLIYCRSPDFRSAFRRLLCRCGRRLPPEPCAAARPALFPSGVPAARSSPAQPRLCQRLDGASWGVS

`O=C1OC2(CCN(C(=O)c3ccc(C[C@@H]4CC[C@H]([C@H](O)c5ccccc5)N4)cc3)CC2)c2cccnc21` [Example 286]: the EC50 under setting [1] is 10 to 99.9 nM. As for `C[C@@H]1CN(C(=O)c2ccc(C[C@@H]3CC[C@H]([C@H](O)c4ccccc4)N3)cc2)CCN1Cc1ccccn1` [Example 527], the EC50 under setting [2] is 10 to 99.9 nM.

Take `O=C(c1ccc(C[C@@H]2CC[C@H]([C@H](O)c3ccccc3)N2)cc1)N1CCC(n2cccn2)CC1` [Example 64, (R)-phenyl[(2R,5S)-5-(4-{[4-(1H-pyrazol-1-yl)-piperidin-1-yl]carbonyl}benzyl)pyrrolidine-2-yl]methanol]: under setting [3], the EC50 was in the range of 10 to 99.9 nM. Take `O=C(c1ccc(CC2CCC(C(O)c3ccccc3)N2)cc1)N1CCN(C(c2ccccn2)C2CC2)CC1` (single isomer, unassigned) [Example 589]: under setting [4], the EC50 is 10 to 99.9 nM. For `CC(C(=O)N1CCCC2(CCC2)C1)N1CCN(C(=O)c2ccc(C[C@@H]3CC[C@H]([C@H](O)c4ccccc4)N3)cc2)CC1` (stereo partly drawn) [Example 496], the EC50 under setting [5] lay within 10 to 99.9 nM. For `Cn1ncnc1CN1CCN(C(=O)c2ccc(C[C@@H]3CC[C@H]([C@H](O)c4ccccc4)N3)cc2)CC1` [Example 397], the EC50 under setting [6] fell in the range of 10 to 99.9 nM.

`CCN(CCO)C(=O)C(C)N1CCN(C(=O)c2ccc(C[C@@H]3CC[C@H]([C@H](O)c4ccccc4)N3)cc2)CC1` (stereo partly drawn) [Example 520]: the EC50 under setting [5] was 10 to 99.9 nM. Regarding `O=C(c1ccc(C[C@@H]2CC[C@H]([C@H](O)c3ccccc3)N2)cc1)N1CCC(n2cncn2)CC1` [Example 92], the EC50 under setting [7] lay within 10 to 99.9 nM. Consider `CC(c1ccccc1F)N1CCN(C(=O)c2ccc(CC3CCC(C(O)c4ccccc4)N3)cc2)CC1` (single isomer, unassigned) [Example 574], for which the EC50 under setting [4] is 10 to 99.9 nM. For the compound `O=C(c1ccc(C[C@@H]2CC[C@H]([C@H](O)c3ccccc3)N2)cc1)N1C[C@@H]2[C@H](C1)[C@H]2c1nnco1` [Example 170], under setting [3], the EC50 is 1 to 9.9 nM. Take `CC(c1cccnn1)N1CCN(C(=O)c2ccc(CC3CCC(C(O)c4ccccc4)N3)cc2)CC1` (single isomer, unassigned) [Example 591]: the EC50 under setting [4] was in the range of 10 to 99.9 nM. Take `COC1CN(C(=O)C(C)N2CCN(C(=O)c3ccc(C[C@@H]4CC[C@H]([C@H](O)c5ccccc5)N4)cc3)CC2)C1` (stereo partly drawn) [Example 473]: under setting [5], the EC50 fell in the range of 10 to 99.9 nM. Take `O=C(c1ccc(C[C@@H]2CC[C@H]([C@H](O)c3ccccc3)N2)cc1)N1CCN(Cc2nnn[nH]2)CC1` [Example 398]: under setting [6], the EC50 is 10 to 99.9 nM. For the compound `COc1ccc2c(n1)C1(CCN(C(=O)c3ccc(C[C@@H]4CC[C@H]([C@H](O)c5ccccc5)N4)cc3)CC1)OC2=O` [Example 288], under setting [1], the EC50 is 10 to 99.9 nM. As for `O=C1Nc2ncccc2C2(CCN(C(=O)c3ccc(C[C@@H]4CC[C@H]([C@H](O)c5ccccc5)N4)cc3)CC2)O1` [Example 330], under setting [1], the EC50 was 10 to 99.9 nM. As to `Cc1nnnn1C1CCN(C(=O)c2ccc(C[C@@H]3CC[C@H]([C@H](O)c4ccccc4)N3)cc2)CC1` [Example 101], the EC50 under setting [7] was 1 to 9.9 nM.

Turning to `O=C(c1ccc(C[C@@H]2CC[C@H]([C@H](O)c3ccccc3)N2)cc1)N1CCCCC1c1nccs1` (stereo partly drawn) [Example 50], the EC50 under setting [8] is 100 to 999 nM. For `C[C@H]1CN(C(=O)c2ccc(C[C@@H]3CC[C@H]([C@H](O)c4ccccc4)N3)cc2)CC[C@@H]1n1cccn1` [Example 62], the EC50 under setting [8] was in the range of 100 to 999 nM. With `O=C(c1ccccc1)N1CCN(C(=O)c2ccc(C[C@@H]3CC[C@H]([C@H](O)c4ccccc4)N3)cc2)CC1` [Example 347], under setting [6], the EC50 lay within 100 to 999 nM. In the case of `CNC(=O)c1ccccc1OC1CCN(C(=O)c2ccc(C[C@@H]3CC[C@H]([C@H](O)c4ccccc4)N3)cc2)CC1` [Example 157], the EC50 under setting [7] is 100 to 999 nM. As for `O=C(c1ccc(C[C@@H]2CC[C@H]([C@H](O)c3ccccc3)N2)cc1)N1CC2CC1CN2Cc1ccccn1` (stereo partly drawn) [Example 534], the EC50 under setting [2] lay within 100 to 999 nM. On to `Cc1nnn(C2CCN(C(=O)c3ccc(C[C@@H]4CC[C@H]([C@H](O)c5ccccc5)N4)cc3)CC2)n1` [Example 104], for which the EC50 under setting [7] fell in the range of 100 to 999 nM.

Consider `COC(=O)c1cccnc1N1CCN(C(=O)c2ccc(C[C@@H]3CC[C@H]([C@H](O)c4ccccc4)N3)cc2)CC1` [Example 366], for which, under setting [6], the EC50 was in the range of 10 to 99.9 nM.

In the case of `C[C@H](c1ccccn1)N1CC2CCC1CN2C(=O)c1ccc(C[C@@H]2CC[C@H]([C@H](O)c3ccccc3)N2)cc1` (stereo partly drawn) [Example 541], the EC50 under setting [2] is 100 to 999 nM.

Take `O=C(c1ccc(C[C@@H]2CC[C@H]([C@H](O)c3ccccc3)N2)cc1)N1CCN(C2(c3ccccn3)CC2)CC1` [Example 420]: the EC50 under setting [6] was in the range of 100 to 999 nM.

For the compound `O=C(c1ccc(C[C@@H]2CC[C@H]([C@H](O)c3ccccc3)N2)cc1)N1CCN(c2nccc3ccccc23)CC1` [Example 373], the EC50 under setting [6] lay in the range of 10 to 99.9 nM.

Take `CC(C(=O)NC1CCOCC1)N1CCN(C(=O)c2ccc(C[C@@H]3CC[C@H]([C@H](O)c4ccccc4)N3)cc2)CC1` (stereo partly drawn) [Example 468]: the EC50 under setting [5] lay within 100 to 999 nM.

`N#CC1(c2cnccn2)C2CN(C(=O)c3ccc(C[C@@H]4CC[C@H]([C@H](O)c5ccccc5)N4)cc3)CC21` (stereo partly drawn) [Example 235]: the EC50 under setting [9] fell in the range of 10 to 99.9 nM. With `C[C@@H]1CN(C(=O)c2ccc(C[C@@H]3CC[C@H]([C@H](O)c4ccccc4)N3)cc2)CC[C@@H]1n1cccn1` [Example 60], the EC50 under setting [8] was in the range of 10 to 99.9 nM.

For `O=C(c1ccc(C[C@@H]2CC[C@H]([C@H](O)c3ccccc3)N2)cc1)N1CCN(Cc2n[nH]c3ncccc23)CC1` [Example 406], under setting [6], the EC50 was 10 to 99.9 nM. In the case of `CC(C(=O)N1CCCC(C(F)(F)F)C1)N1CCN(C(=O)c2ccc(C[C@@H]3CC[C@H]([C@H](O)c4ccccc4)N3)cc2)CC1` (stereo partly drawn) [Example 487], the EC50 under setting [5] lay in the range of 1 to 9.9 nM.

In the case of `Cc1cc(C)nc(N2CCN(C(=O)c3ccc(C[C@@H]4CC[C@H]([C@H](O)c5ccccc5)N4)cc3)CC2)n1` [Example 372], the EC50 under setting [6] fell in the range of 100 to 999 nM. Regarding `Cc1cncn1C1CCN(C(=O)c2ccc(C[C@@H]3CC[C@H]([C@H](O)c4cccnc4)N3)cc2)CC1` [Example 87], under setting [7], the EC50 fell in the range of 100 to 999 nM. As to `O=C(c1ccc(C[C@@H]2CC[C@H]([C@H](O)c3ccccc3)N2)cc1)N1CCN(Cc2noc3ccccc23)CC1` [Example 407], the EC50 under setting [6] lay in the range of 1 to 9.9 nM.

`CCOC(=O)C1C2CN(C(=O)c3ccc(CC4CCC(C(O)c5ccccc5)N4)cc3)CC21` (stereo not drawn) [Example 230]: under setting [9], the EC50 lay within 10 to 99.9 nM. With `O=C(c1ccc(C[C@@H]2CC[C@H]([C@H](O)c3ccccc3)N2)cc1)N1CCN(c2ccccc2O)CC1` [Example 359], the EC50 under setting [6] lay in the range of 10 to 99.9 nM. On to `CCOC(=O)N1CCN(C(=O)c2ccc(C[C@@H]3CC[C@H]([C@H](O)c4ccccc4)N3)cc2)CC1` [Example 344], for which the EC50 under setting [6] is 100 to 999 nM. Take `CC(C)n1nnnc1C1CCN(C(=O)c2ccc(C[C@@H]3CC[C@H]([C@H](O)c4ccccc4)N3)cc2)CC1` [Example 109]: under setting [7], the EC50 was in the range of 1 to 9.9 nM. In the case of `O=C(c1ccc(C[C@@H]2CC[C@H]([C@H](O)c3ccccc3)N2)cc1)N1CCCN(Cc2ccccn2)CC1` [Example 551], the EC50 under setting [2] was 10 to 99.9 nM. Regarding `O=C(c1ccc(C[C@@H]2CC[C@H]([C@H](O)c3ccccc3)N2)cc1)N1CCC2c3ccccc3OC2C1` (stereo partly drawn) [Example 56], under setting [8], the EC50 lay within 1 to 9.9 nM.

Consider `COc1cccc2c1C1(CCN(C(=O)c3ccc(C[C@@H]4CC[C@H]([C@H](O)c5cccnc5)N4)cc3)CC1)OC(=O)N2` [Example 331], for which the EC50 under setting [1] fell in the range of 10 to 99.9 nM. With `O=C(c1ccc(C[C@@H]2CC[C@H]([C@H](O)c3ccccc3)N2)cc1)N1CCN(c2cc3ccccc3cn2)CC1` [Example 374], the EC50 under setting [6] was 100 to 999 nM. `CC(C(=O)NC(C)(C)CO)N1CCN(C(=O)c2ccc(C[C@@H]3CC[C@H]([C@H](O)c4ccccc4)N3)cc2)CC1` (stereo partly drawn) [Example 444]: under setting [5], the EC50 was in the range of 100 to 999 nM.

For `O=C(c1ccc(C[C@@H]2CC[C@H]([C@H](O)c3ccccc3)N2)cc1)N1CCC2(CC1)CCN(c1ccccc1)C2=O` [Example 254], the EC50 under setting [1] lay in the range of 100 to 999 nM.

In the case of `Nc1nnc(C2CCN(C(=O)c3ccc(C[C@@H]4CC[C@H]([C@H](O)c5ccccc5)N4)cc3)CC2)o1` [Example 99], under setting [7], the EC50 was in the range of 10 to 99.9 nM. On to `O=C(c1ccc(C[C@@H]2CC[C@H]([C@H](O)c3ccccc3)N2)cc1)N1CCC2(CC1)C(=O)NCC2c1cccc(C(F)(F)F)c1` (stereo partly drawn) [Example 264], for which the EC50 under setting [1] was below 1 nM. `O=C(c1ccc(C[C@@H]2CC[C@H]([C@H](O)c3ccccc3)N2)cc1)N1CCC2(CCOC2=O)C1` (stereo partly drawn) [Example 13]: the EC50 under setting [8] lay in the range of 10 to 99.9 nM.

Consider `O=C(c1ccc(C[C@@H]2CC[C@H]([C@H](O)c3ccccc3)N2)cc1)N1CCC2(CC1)NC(=O)N(Cc1ccccc1)C2=O` [Example 269], for which the EC50 under setting [1] is 10 to 99.9 nM.

Take `O=C(c1ccc(C[C@@H]2CC[C@H]([C@H](O)c3ccccc3)N2)cc1)N1CCC(O)(Cc2ccccc2)CC1` [Example 245]: under setting [1], the EC50 is 10 to 99.9 nM. With `Cc1cn(C2CCN(C(=O)c3ccc(C[C@@H]4CC[C@H]([C@H](O)c5ccccc5)N4)cc3)CC2)nn1` [Example 95], the EC50 under setting [7] was in the range of 10 to 99.9 nM. On the same count and under the same terms, the value for `Cc1nccc(OC2CCN(C(=O)c3ccc(C[C@@H]4CC[C@H]([C@H](O)c5ccccc5)N4)cc3)CC2)n1` [Example 154] was 100 to 999 nM. As to `O=C(c1ccc(C[C@@H]2CC[C@H]([C@H](O)c3ccccc3)N2)cc1)N1CCN(c2ncc3ccccc3n2)CC1` [Example 375], the EC50 under setting [6] lay within 100 to 999 nM. Take `CC(C(=O)N1CCCC2(CCCCO2)C1)N1CCN(C(=O)c2ccc(C[C@@H]3CC[C@H]([C@H](O)c4ccccc4)N3)cc2)CC1` (stereo partly drawn) [Example 498]: the EC50 under setting [5] is 10 to 99.9 nM. On to `O=C(c1ccc(C[C@@H]2CC[C@H]([C@H](O)c3ccccc3)N2)cc1)N1CCN(Cc2ncccc2C(F)(F)F)CC1` [Example 417], for which the EC50 under setting [6] was in the range of 10 to 99.9 nM.
